Measurements taken from patent US20230066011A1, “PYRROLOPYRIMIDINE DERIVATIVE, AND PHARMACEUTICAL COMPOSITION FOR PREVENTING OR TREATING PROTEIN KINASE-RELATED DISEASE COMPRISING SAME AS ACTIVE INGREDIENT” (VORONOI CO., LTD., priority 2019, published 2023).

Experiments:
Format in all cases: biochemical
human GST-DYRK1A = molecular target: T1, human GST-DYRK1A (Homo sapiens, UniProt Q13627); assay: GST-DYRK1A enzyme inhibition, ADP-Glo kinase assay; details: ATP 10 μM, GST-DYRK1A full length, read-out: DYRK1 IC50
T1 construct: purified human GST-DYRK1A (full length, Thermo Scientifics) enzyme; purchased Thermo Scientifics
In short: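 Full-length human GST-DYRK1A (10 ng) with 10 μM ATP and specific substrate in 40 mM Tris-HCl pH 7.4, 20 mM MgCl2, 0.5 mg/mL BSA, 50 μM DTT, 1 h at 25 °C. ADP formation read by ADP-Glo luminescence relative to solvent control; IC50 from three data sets.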

human GST-CLK1 = molecular target: T2, human GST-CLK1 (Homo sapiens, UniProt P49759); assay: GST-CLK1 enzyme inhibition, ADP-Glo kinase assay; details: ATP 10 μM, GST-CLK1 129-end
T2 construct: purified human GST-CLK1 (129-end, SignalChem) enzyme; purchased SignalChem
In short: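 Human GST-CLK1 (129-end, 3 ng) reacted with substrate and 10 μM ATP for 1 h at 25° C in 40 mM Tris-HCl pH 7.4, 20 mM MgCl2, 0.5 mg/mL BSA, 50 μM DTT. ADP-Glo luminescence was normalised to solvent control; IC50 (nM) from 3 data sets.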

LRRK2 = LRRK2 (Homo sapiens, UniProt Q5S007); assay: LRRK2 enzyme inhibition, ADP-Glo kinase assay; parameters: purchased Invitrogen PR8604B; details: ATP 10 μM
In short: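 Purified human LRRK2 (25 ng) with 10 μM ATP and 0.2 μg substrate in 40 mM Tris-HCl pH 7.4, 20 mM MgCl2, 0.5 mg/mL BSA, 50 μM DTT, 2 h at 25° C. ADP-Glo luminescence; 12-point compound series from 50 μM final; IC50 relative to solvent control.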

LRRK2 (G2019S) = LRRK2 (G2019S) (Homo sapiens, UniProt Q5S007, G2019S); assay: LRRK2 G2019S enzyme inhibition, ADP-Glo kinase assay; parameters: purchased SignalChem L10-12GG; details: ATP 25 μM
In short: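 Purified human LRRK2 G2019S (16 ng) with 25 μM ATP and 0.2 μg substrate, 2 h at 25° C. in Tris-HCl pH 7.4, MgCl2, BSA, DTT buffer; compounds at 12 final concentrations, 50 μM down to 0.000001024 μM. ADP-Glo luminescence versus solvent control gave IC50.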

Sequence of LRRK2 (G2019S) (Q5S007 970-2527 G2019S limits assumed): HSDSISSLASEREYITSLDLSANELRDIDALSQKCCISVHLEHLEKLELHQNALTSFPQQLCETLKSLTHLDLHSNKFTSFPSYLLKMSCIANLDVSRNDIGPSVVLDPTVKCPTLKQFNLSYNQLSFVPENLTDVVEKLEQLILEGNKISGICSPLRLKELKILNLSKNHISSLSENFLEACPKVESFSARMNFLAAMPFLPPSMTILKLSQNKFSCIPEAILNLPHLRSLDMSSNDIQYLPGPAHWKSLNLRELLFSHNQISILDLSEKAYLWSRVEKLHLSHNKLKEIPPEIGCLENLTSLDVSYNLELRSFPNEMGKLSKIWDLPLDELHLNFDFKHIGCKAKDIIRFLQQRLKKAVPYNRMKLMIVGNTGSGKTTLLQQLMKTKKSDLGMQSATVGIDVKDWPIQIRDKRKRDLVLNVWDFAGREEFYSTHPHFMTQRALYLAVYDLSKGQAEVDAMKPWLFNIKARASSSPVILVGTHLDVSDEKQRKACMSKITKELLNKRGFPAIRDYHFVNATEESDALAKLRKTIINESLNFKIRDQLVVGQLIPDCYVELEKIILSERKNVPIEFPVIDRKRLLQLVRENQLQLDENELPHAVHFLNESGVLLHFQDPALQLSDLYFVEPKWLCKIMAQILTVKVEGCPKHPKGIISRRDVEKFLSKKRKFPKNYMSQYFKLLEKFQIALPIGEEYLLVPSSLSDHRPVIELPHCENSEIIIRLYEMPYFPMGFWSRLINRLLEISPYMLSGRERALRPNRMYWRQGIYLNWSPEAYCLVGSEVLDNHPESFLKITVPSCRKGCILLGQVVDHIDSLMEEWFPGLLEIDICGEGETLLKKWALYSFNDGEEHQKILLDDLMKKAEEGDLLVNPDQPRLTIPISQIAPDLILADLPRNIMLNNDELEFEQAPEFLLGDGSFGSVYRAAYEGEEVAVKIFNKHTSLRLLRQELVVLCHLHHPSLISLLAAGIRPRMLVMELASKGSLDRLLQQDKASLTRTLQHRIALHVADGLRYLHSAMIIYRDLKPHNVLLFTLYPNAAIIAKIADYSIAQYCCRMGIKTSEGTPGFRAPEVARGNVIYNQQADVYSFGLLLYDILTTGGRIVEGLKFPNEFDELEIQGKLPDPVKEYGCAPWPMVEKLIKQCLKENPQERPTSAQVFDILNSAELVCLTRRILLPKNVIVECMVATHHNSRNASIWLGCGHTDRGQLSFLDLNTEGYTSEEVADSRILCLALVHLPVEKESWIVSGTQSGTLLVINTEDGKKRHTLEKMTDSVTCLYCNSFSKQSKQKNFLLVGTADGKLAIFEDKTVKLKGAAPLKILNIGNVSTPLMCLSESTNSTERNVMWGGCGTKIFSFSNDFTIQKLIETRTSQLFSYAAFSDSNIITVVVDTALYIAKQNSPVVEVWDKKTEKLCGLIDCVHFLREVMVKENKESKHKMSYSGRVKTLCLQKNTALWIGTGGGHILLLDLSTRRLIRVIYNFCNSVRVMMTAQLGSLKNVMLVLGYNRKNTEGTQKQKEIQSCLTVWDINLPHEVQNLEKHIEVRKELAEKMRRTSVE
Sequence of LRRK2 (Q5S007 970-2527 limits assumed): as the sequence (Q5S007 970-2527 G2019S limits assumed) above, with S1050G counted along it
T2 sequence (P49759 129-484 limits assumed): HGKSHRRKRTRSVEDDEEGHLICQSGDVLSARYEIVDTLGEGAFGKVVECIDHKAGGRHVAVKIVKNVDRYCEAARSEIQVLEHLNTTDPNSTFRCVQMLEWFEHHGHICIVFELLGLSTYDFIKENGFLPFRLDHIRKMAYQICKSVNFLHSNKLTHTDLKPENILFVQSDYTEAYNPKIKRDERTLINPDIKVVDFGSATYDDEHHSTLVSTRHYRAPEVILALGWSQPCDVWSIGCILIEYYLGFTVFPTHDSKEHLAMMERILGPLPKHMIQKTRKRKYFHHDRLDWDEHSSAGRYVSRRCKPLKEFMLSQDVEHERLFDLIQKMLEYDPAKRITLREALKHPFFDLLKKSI

SMILES	IC50 (human GST-DYRK1A) [nM]	IC50 (human GST-CLK1) [nM]	IC50 (LRRK2) [nM]	IC50 (LRRK2 (G2019S)) [nM]
N#Cc1c[nH]c2nc(Nc3ccc(C(=O)N4CCOCC4)c4c3OCCO4)nc(NCC3CC3)c12 [Example 130, 4-((cyclopropylmethyl)amino)-2-((8-(morpholine-4-carbonyl)-2,3-dihydrobenzo[b][1,4]dioxin-5-yl)amino)-7H-pyrrolo[2,3-d]pyrimidine-5-carbonitrile]	301 to 1000	301 to 1000	< 100	< 100
CCCCNc1nc(Nc2ccc(C(=O)N3CCOCC3)c3c2OCCO3)nc2[nH]cc(C#N)c12 [Example 134, 4-(butylamino)-2-((8-(morpholine-4-carbonyl)-2,3-dihydrobenzo[b][1,4]dioxin-5-yl)amino)-7H-pyrrolo[2,3-d]pyrimidine-5-carbonitrile]	301 to 1000	301 to 1000	< 100	< 100
N#Cc1c[nH]c2nc(Nc3ccc(C(=O)N4CCOCC4)c4c3OCCO4)nc(NC3COC3)c12 [Example 135, 2-((8-(morpholine-4-carbonyl)-2,3-dihydrobenzo[b][1,4]dioxin-5-yl)amino)-4-(oxetan-3-ylamino)-7H-pyrrolo[2,3-d]pyrimdine-5-carbonitrile]	301 to 1000	301 to 1000	301 to 1000	301 to 1000
CNc1nc(Nc2ccc(C(=O)N3CCC(N4CCOCC4)CC3)c3c2OCCO3)nc2[nH]cc(C#N)c12 [Example 136, 4-(methylamino)-2-((8-(4-morpholinopiperidine-1-carbonyl)-2,3-dihydrobenzo[b][1,4]dioxin-5-yl)amino)-7H-pyrrolo[2,3-d]pyrimidine-5-carbonitrile]	101 to 300	< 100	< 100	< 100
CCNc1nc(Nc2ccc(C(=O)N3CCC(N4CCOCC4)CC3)c3c2OCCO3)nc2[nH]cc(C#N)c12 [Example 137, 4-(ethylamino)-2-((8-(4-morpholinopiperidine-1-carbonyl)-2,3-dihydrobenzo[b][1,4]dioxin-5-yl)amino)-7H-pyrrolo[2,3-d]pyrimidine-5-carbontrile]	101 to 300	< 100	< 100	< 100
N#Cc1c[nH]c2nc(Nc3ccc(C(=O)N4CCC(N5CCOCC5)CC4)c4c3OCCO4)nc(NC3CC3)c12 [Example 141, 4-(cyclopropylamino)-2-((8-(4-morpholinopiperidine-1-carbonyl)-2,3-dihydrobenzo[b][1,4]dioxin-5-yl)amino)-7H-pyrrolo[2,3-d]pyrimidine-5-carbonitrile]	301 to 1000	< 100	< 100	< 100
CNc1nc(Nc2ccc(C(=O)N3CCOCC3)c3c2OCCO3)nc2[nH]cc(C(F)(F)F)c12 [Example 155, (8-((4-(methyalmino)-5-(trifluoromethyl)-7H-pyrrolo[2,3-d]pyrimidin-2-yl)amino)-2,3-dihydrobenzo[b][1,4]dioxin-5-yl)(morpholino)methanone 2,2,2-trifluoroacetate]	< 100	< 100	< 100	< 100
CCNc1nc(Nc2ccc(C(=O)N3CCOCC3)c3c2OCCO3)nc2[nH]cc(C(F)(F)F)c12 [Example 156, (8-((4-(ethylamino)-5-(trifluoromethyl)-7H-pyrrolo[2,3-d]pyrimidin-2-yl)amino)-2,3-dihydrobenzo[b][1,4]dioxin-5-yl)(morpholino)methanone 2,2,2-trifluoroacetate]	101 to 300	< 100	< 100	< 100
CCNc1nc(Nc2ccc(S(C)(=O)=O)cc2OC)nc2[nH]cc(C(F)(F)F)c12 [Example 159, N^4-ethyl-N^2-(2-methoxy-4-(methylsulfonyl)phenyl)-5-(trifluoromethyl)-7H-pyrrolo[2,3-d]pyrimidine-2,4-diamine]	301 to 1000	301 to 1000	< 100	301 to 1000
